We go through seven molecules from US5445951A, “Regioselective enzymatic deacylation of sucrose esters in anhydrous organic media” (priority 1993, dated 1995).

Each structure is given as a SMILES string. Where “and” joins values, the source holds several entries; their conditions need not be identical. Equal entries are not always repeated. Where two headings read alike, the source gives them in different places.

For data set [1], the system named is lipase AY 30. The data set is described as follows: Effect of the solvent on lipase AY 30 SOA deacetylation. It is filed as biochemical, Candida cylindracea. The note with it: lipase AY 30, solvent as labelled, 24 hrs. As to the method:
(§1) Identical enzyme catalyzed SOA deacetylations were run in numerous anhydrous solvents. After 24 hrs incubation an aliquot was analyzed by HPLC.
(§2) Enzyme and Solvent Screening for SOA Deacetylation. A scintillation vial was charged successively with 100 mg of powdered enzyme as received or prepared as described and 1.0 ml of 20 mM sucrose octaacetate (SOA) dissolved in an organic solvent. Following a 5 sec sonication, the vial was incubated in a controlled-temperature shaker at 45° C. and 300 RPM for 24 hrs. A 200 μl aliquot of the reaction mixture was withdrawn and centrifuged. The supernatant was collected and evaporated under a stream of N2. The residue was reconstituted in 200 μl of acetonitrile and 10 μl of this solution was analyzed by HPLC.

For another data set, the target named is T1, alcalase (Bacillus licheniformis, UniProt P00780).
T1 construct: purchased Novo Nordisk (gift)
T1 sequence (P00780 106-379): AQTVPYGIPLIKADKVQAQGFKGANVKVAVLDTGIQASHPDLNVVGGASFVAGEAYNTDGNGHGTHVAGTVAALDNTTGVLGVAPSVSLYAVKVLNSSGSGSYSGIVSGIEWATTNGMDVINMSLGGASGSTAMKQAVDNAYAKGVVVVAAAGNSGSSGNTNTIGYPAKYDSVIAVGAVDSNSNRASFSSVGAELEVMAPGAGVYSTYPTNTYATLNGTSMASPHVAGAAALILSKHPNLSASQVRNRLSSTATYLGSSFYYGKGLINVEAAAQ
The data set is described as follows: Solvent effect on alcalase catalyzed deacetylation of SOA. It is filed as biochemical. The settings on record: 24 hrs; for SheptaA: total of 1'-OH and 6'-OH heptaacetates; for SOA / ShexaA: solvent as labelled. The protocol:
as §1
Enzyme Precipitation. Alcalase was prepared by adding 37.5 ml cold acetone (-20° C.) to 25 ml of alcalase solution as supplied by Novo. The aqueous acetone was decanted and the residue dissolved in 25 ml of pH 9.0 glycine--NaOH buffer. The pH of this solution was adjusted to 9.0 with a few drops of dilute NaOH solution. Cold acetone (37.5 ml at -20° C.) was added to the buffered alcalase solution and the precipitate collected by filtration on a medium porosity glass funnel and dried overnight at 2 millitorr. The resulting pellet was ground to a fine powder and stored at 4° C. over saturated aqueous potassium carbonate (RH: 43%) for 24 hrs.
as §2

The test system of the next data set is lipase AP 12. In words: Solvent effect on lipase AP 12 catalyzed deacetylation of SOA. It counts as biochemical, Aspergillus niger. The settings on record: lipase AP 12, solvent as labelled, 24 hrs. The protocol: as §1
(§3) The pH of commercial powdered enzymes was adjusted in the following way: The enzyme (3 g) was dissolved in 25 ml of an appropriate buffer and the pH adjusted with dilute NaOH or citric/phosphoric acid solution. Cold acetone (37.5 ml at -20° C.) was added and the precipitate collected on a medium porosity glass funnel and dried overnight at 2 millitorr. The protein pellet was ground to a fine powder and equilibrated at 4° C. over saturated aqueous potassium carbonate (RH: 43%) for 24 hrs.
as §2

In data set [2] the test system is alcalase deposited on Hyflo Super Cell. In words: Solvent effect on alcalase deposited on Hyflo Super Cell catalyzed deacetylation of SOA. It is filed as biochemical, Bacillus licheniformis. The note with it: immobilized alcalase, 4 hour incubation; for SheptaA: total of 1'-OH and 6'-OH heptaacetates. As to the method:
(§4) Alcalase and lipase AY 30 were deposited on Hyflo Super Cell and used as catalysts for SOA deacetylation reactions in several anhydrous solvents.
(§5) Enzyme immobilization. The pH of a solution of 900 mg of buffered alcalase in 18 ml of water was adjusted to 9.0 with dilute NaOH. Hyflo super cell (6 g) was added and the slurry thoroughly mixed. […] Lipase AY 30 was immobilized in the same manner except that the protein solution was adjusted to pH 7.0 with sodium phosphate.
Enzyme and Solvent Screening for SOA Deacetylation. A scintillation vial was charged successively with 100 mg of powdered enzyme as received or prepared as described and 1.0 ml of 20 mM sucrose octaacetate (SOA) dissolved in an organic solvent. […] A 200 μl aliquot of the reaction mixture was withdrawn and centrifuged. The supernatant was collected and evaporated under a stream of N2. The residue was reconstituted in 200 μl of acetonitrile and 10 μl of this solution was analyzed by HPLC.

Data set [3] deals with lipase AY 30 deposited on Hyflo Super Cell. The data set is described as follows: Solvent effect on lipase AY 30 deposited on Hyflo Super Cell catalyzed deacetylation of SOA. It is filed as biochemical, Candida cylindracea. The note with it: immobilized lipase AY 30, 24 hrs. As to the method: as §4, §5, §2
For data set [4] the following is noted: n-octanol/water, cited from earlier work.
In the next data set the test system is proleather. The data set is described as follows: Solvent effect on proleather catalyzed deacetylation of SOA. The note with it: 24 hrs; for SheptaA: total of 1'-OH and 6'-OH heptaacetates; for SOA / ShexaA: solvent as labelled. It is filed as biochemical, Bacillus subtilis. As to the method: as §1, §3, §2
Data set [5] relates to lipase AY 30. The data set is described as follows: Effect of the solvent on lipase AY 30 catalyzed deacylation of SOP. For SheptaP's ([…]): HPLC peak 8.2 min. It counts as biochemical, Candida cylindracea. The settings on record: for ShexaP (4.2 min) / SheptaP's (8.9 min) / SheptaP's (9.4 min) / SheptaP's ([…]): lipase AY 30, 24 hrs; for ShexaP (4.2 min): HPLC peak 4.2 min; for SheptaP's (8.9 min): HPLC peak 8.9 min; for SheptaP's (9.4 min): HPLC peak 9.4 min; for SheptaP's ([…]): HPLC peak […]; for SOA: lipase AY 30, solvent as labelled, 200 mM butanol, 24 hrs, peak 21.4 min. As to the method: Identical SOP deacylations were performed with lipase AY 30 or protease type XXIII in numerous anhydrous organic solvents, as shown in Tables 12 and 13.
as §2, with “Solvent” for “Enzyme and Solvent”, “screening” for “Screening”, “SOP deacylation.” for “SOA Deacetylation.”, “lipase AY 30” for “powdered enzyme as received”, “protease type XXIII” for “prepared”, “octapropionate (SOP) and 200mM butanol” for “octaacetate (SOA)”

Consider `CCCCOCC` [butyl ethyl ether], for which the SOA is recorded as 73.9% in the data set with lipase AY 30 [1]; 81.4% at alcalase; 81.6% with lipase AP 12; 97.8% in data set [2]; 96.0% in data set [3]. Besides, the SheptaA in the data set on lipase AY 30 [1] came to 21.4%; on alcalase, 16.9%; with lipase AP 12 it was 16.3%; in data set [2], 2.2%; in data set [3], 4.0%. The ShexaA with lipase AY 30 [1] is 4.7%; on alcalase it was 1.7%; in the data set with lipase AP 12 it was 2.1%; in data set [2], 0%. Moreover, in data set [4] (from Laane et al.), the “log P” value is 1.9.

In the case of `CCCCOC(C)=O` [n-butyl acetate], in the data set with lipase AY 30 [1], the SOA is given as 95.2%, the SheptaA was 4.6% and the ShexaA was found to be 0.4%. On alcalase, the SheptaA was determined as 2.4%, the SOA is recorded as 97.6% and the ShexaA is 0%. Also, in the data set with lipase AP 12, the SOA was found to be 97.6%, the SheptaA stood at 2.4% and the ShexaA is 0%. Moreover, in the data set with proleather, the SheptaA worked out at 16.5%, the SOA was found to be 81.3% and the ShexaA worked out at 2.2%. Also, in data set [3], the SOA turned out to be 97.6% and the SheptaA was found to be 2.4%. Further, in the data set on lipase AY 30 [5], the “ShexaP (4.2 min)” value was found to be 0%, the “SheptaP's (8.9 min)” value is on record as 0%, the “SheptaP's (9.4 min)” value stood at 0.7% and the “SheptaP's ([…])” value stood at 1.4%. The same molecule had an SOA with lipase AY 30 [5] of 97.9%. Further, the “log P” value in data set [4] (from Laane et al.) is 1.7.

Turning to `CC(C)OC(C)C` [diisopropyl ether], in the data set with lipase AY 30 [1], the SOA is 29.6%, the SheptaA is reported as 39.6% and the ShexaA amounted to 30.9%. Moreover, on alcalase, the SheptaA stood at 22.3%, the SOA is on record as 75.2% and the ShexaA turned out to be 2.5%. Also, in the data set on lipase AP 12, the SOA turned out to be 82.7%, the SheptaA is reported as 15.7% and the ShexaA is reported as 1.6%. For the same molecule, in the data set on proleather, the SheptaA turned out to be 25.9%, the SOA is reported as 70.6% and the ShexaA came to 3.5%. In data set [2], this molecule registered an SOA of 89.3%, a ShexaA of 0.8% and a SheptaA of 9.9%. In data set [3], this molecule registered an SOA of 85.7% and a SheptaA of 14.3%. In the data set with lipase AY 30 [5], the “ShexaP (4.2 min)” value came to 13.0%, the “SheptaP's (8.9 min)” value is listed as 1.5%, the “SheptaP's (9.4 min)” value is given as 13.5% and the “SheptaP's ([…])” value was 17.3%. In the data set on lipase AY 30 [5], this molecule registered an SOA of 54.7%. Besides, the “log P” value in data set [4] is listed as 1.9.

In the data set on lipase AY 30 [1], `COC(C)(C)C` [t-butyl methyl ether] gave an SOA of 61.6%, a SheptaA of 28.8% and a ShexaA of 9.6%. Further, on alcalase, the SheptaA is given as 6.8%, the SOA is recorded as 92.6% and the ShexaA came to 0.6%. In addition, in the data set with proleather, the SheptaA worked out at 24.4%, the SOA is listed as 72.4% and the ShexaA amounted to 3.2%. Further, in data set [2], the SOA is given as 97.3%, the ShexaA was found to be 0% and the SheptaA turned out to be 2.7%. In data set [3], this molecule yielded an SOA of 96.0% and a SheptaA of 4.0%. In the data set on lipase AY 30 [5], the “ShexaP (4.2 min)” value worked out at 0.8%, the “SheptaP's (8.9 min)” value is given as 0.3%, the “SheptaP's (9.4 min)” value is on record as 5.9% and the “SheptaP's ([…])” value worked out at 4.3%. In the data set on lipase AY 30 [5], this molecule yielded an SOA of 88.7%. Moreover, in data set [4] (from Laane et al.), the “log P” value is on record as 1.3.

Regarding `CCCOCCC` [dipropyl ether], the SOA stood at 51.6% with lipase AY 30 [1]; 83.9% on alcalase; 81.8% with lipase AP 12; 75.2% in the data set on proleather; 92.9% in data set [2]; 93.4% in data set [3]. Besides, the SheptaA in the data set with lipase AY 30 [1] is given as 32.4%; at alcalase, 14.5%; in the data set on lipase AP 12, 15.9%; in the data set on proleather, 21.5%; in data set [2] it was 6.5%; in data set [3] it was 6.6%. Further, the ShexaA was found to be 16.0% in the data set on lipase AY 30 [1]; 1.6% at alcalase; 2.3% with lipase AP 12; 3.3% with proleather; 0.6% in data set [2]. Moreover, the “log P” value in data set [4] (from Laane et al.) is recorded as 1.9.

On to `ClC(Cl)(Cl)Cl` [CCl4, carbon tetrachloride], for which the SOA in the data set on lipase AY 30 [1] is on record as 86.9%; on alcalase it was 94.8%; in the data set with lipase AP 12, 95.1%; in the data set on proleather, 89.1%; in data set [2], 98.6%; in data set [3] it was 97.5%. For the same molecule, in the data set with lipase AY 30 [5], the SOA was 98.2%. The SheptaA worked out at 10.4% in the data set on lipase AY 30 [1]; 5.2% at alcalase; 4.3% in the data set on lipase AP 12; 9.6% in the data set with proleather; 1.4% in data set [2]; 2.5% in data set [3]. For the same molecule, the ShexaA in the data set with lipase AY 30 [1] is reported as 2.7%; at alcalase, 0%; with lipase AP 12, 0.6%; with proleather it was 1.3%; in data set [2], 0%. The “ShexaP (4.2 min)” value in the data set with lipase AY 30 [5] is reported as 0%. For the same molecule, the “SheptaP's (8.9 min)” value in the data set with lipase AY 30 [5] is recorded as 0%. In the data set with lipase AY 30 [5], the “SheptaP's (9.4 min)” value is given as 0.7%. Moreover, in the data set on lipase AY 30 [5], the “SheptaP's ([…])” value was 1.1%. In addition, the log partition coefficient (log P) in data set [4] (from Laane et al.) is 3.0 and 3.1.

For the molecule `COc1ccccc1` [anisole], the SOA in the data set with lipase AY 30 [1] is 86.1%; on alcalase, 96.1%; in the data set on lipase AP 12 it was 96.2%; with proleather it was 79.2%; in data set [2] it was 98.0%; in data set [3] it was 98.2%. Further, the SheptaA amounted to 9.6% in the data set with lipase AY 30 [1]; 3.9% on alcalase; 3.8% with lipase AP 12; 19.4% with proleather; 2.0% in data set [2]; 1.2% in data set [3]. Besides, the ShexaA in the data set on lipase AY 30 [1] is given as 4.3%; at alcalase it was 0%; in the data set with lipase AP 12 it was 0%; in the data set with proleather, 1.4%; in data set [2], 0%. Besides, the “log P” value in data set [4] is 2.1.
